# Data published in ChEMBL document CHEMBL3763135, “Synthesis and evaluation of thiophene-based guanylhydrazones (iminoguanidines) efficient against panel of voriconazole-resistant fungal isolates” (Bioorg Med Chem, 2016).
# The source made the active and inactive calls. The rule behind the calls is not given here.
# Legend:
# Candida albicans [1] = assay: Antifungal activity against Candida albicans ATCC 10231 by broth dilution method; type: functional
# Candida albicans [2] = assay: Antifungal activity against Candida albicans CA5 by broth dilution method; type: functional
# Pichia kudriavzevii [3] = assay: Antifungal activity against Candida krusei ATCC 34135 by broth dilution method; type: functional
# Candida parapsilosis [4] = assay: Antifungal activity against Candida parapsilosis C27 by broth dilution method; type: functional; conditions: Lodderomyces parapsilosis
# Aspergillus fumigatus = assay: Antifungal activity against Aspergillus fumigatus ATCC 13073 by broth dilution method; type: functional
# Fusarium oxysporum = assay: Antifungal activity against Fusarium oxysporum AB18 by broth dilution method; type: functional
# Microsporum canis = assay: Antifungal activity against Microsporum canis DMT2 by broth dilution method; type: functional
# [5] = system: Trichophyton mentagrophytes; assay: Antifungal activity against Trichophyton mentagrophytes DMT4 by broth dilution method; type: functional
# MRC5 = assay: Cytotoxicity against human MRC5 cells after 48 hrs by MTT assay; type: cell-based; conditions: MRC5, 48 h
# [6] = Selectivity index, ratio of IC50 for human MRC5 cell to MIC for Candida albicans CA5
# [7] = Hemolytic effect in sheep RBC assessed as release of hemoglobin at MIC after 1 hr; type: ADME, cell-based, Ovis aries, Erythrocyte; conditions: sheep red blood cells, read-out: Activity
# [8] = Hemolytic effect in sheep RBC assessed as release of hemoglobin at cytotoxic IC50 after 1 hr; type: cell-based, Ovis aries, Erythrocyte; conditions: sheep red blood cells, read-out: Activity
# [9] = Induction of membrane damage in PC/PS/E liposome assessed as calcein release at MIC after 30 mins by fluorescence-based liposome leakage assay; type: functional
# Candida albicans [10] = assay: Induction of DNA intercalation with Candida albicans genomic DNA at 25 ug/ml after 12 hrs by ethidium bromide staining based gel electrophoresis method
# Candida albicans [11] = assay: Antibiofilm activity against Candida albicans assessed as inhibition of Spider medium-induced hyphae formation at sub-MIC after 24 hrs by propidium iodide and FITC-conjugated concanavaline A staining based fluorescence microscopy; type: functional, organism-based
# Candida albicans [12] = assay: Antibiofilm activity against Candida albicans ATCC 10231 assessed as disruption of preformed biofilm after 24 hrs by concanavalin A-FITC-staining based fluorescence microscopic analysis; type: functional
# Pichia kudriavzevii [13] = assay: Antibiofilm activity against Pichia kudriavzevii ATCC 34135 assessed as disruption of preformed biofilm after 24 hrs by concanavalin A-FITC-staining based fluorescence microscopic analysis; type: functional
# Candida parapsilosis [14] = assay: Antibiofilm activity against Candida parapsilosis C27 assessed as disruption of preformed biofilm after 24 hrs by concanavalin A-FITC-staining based fluorescence microscopic analysis; type: functional
compound,measurement,setting,value
Cl.Cl.N=C(N)N/N=C/c1ccc(-c2ccc(-c3ccc(/C=N/NC(=N)N)cc3)s2)cc1,MIC,Candida albicans [1],3.9 µg/mL
same,MIC,Candida albicans [2],0.25 µg/mL
same,MIC,Pichia kudriavzevii [3],50 µg/mL
same,MIC,Candida parapsilosis [4],50 µg/mL
same,MIC,Aspergillus fumigatus,25 µg/mL
same,MIC,Fusarium oxysporum,> 250 µg/mL
same,MIC,Microsporum canis,0.25 µg/mL
same,MIC,[5],0.25 µg/mL
same,IC50,MRC5,5 µg/mL
same,Selectivity Index,[6],20
same,hemolysis at 1 h,[7],≤ 10%
same,hemolysis at 1 h,[8],≤ 10%
same,Activity,[9],7%
same,Activity,Candida albicans [10],Active
same,Activity,Candida albicans [11],inactive
same,MBEC,Candida albicans [12],250 µg/mL
same,MBEC,Pichia kudriavzevii [13],1000 µg/mL
same,MBEC,Candida parapsilosis [14],1000 µg/mL
